Laboratory results as given in patent US6946457B2, “Methods of treating sickle cell disease” (The Trustees of Columbia University in the City of New York, priority 2001, dated 2005).

Key:
HbS erythrocytes [1] = assay: Inhibition of sickling of intact erythrocytes at low oxygen tension; type: cell-based, human; settings: for sickling of deoxygenated erythrocytes: microscope, formalin-fixed
Description: The procedure used was essentially that of Cerami and Manning (15). The source of the red cells was human blood in which HbS represented essentially 100% of the total hemoglobin as determined by electrophoresis on a cellulose acetate membrane in a Supre-Heme® Tris-EDTA-boric acid buffer (Helena Laboratories, Beaumont, Tex.).
Ten microliters of blood was diluted to 5 ml with PBS and 1 ml aliquots were distributed into the same type of cuvettes used to study hemoglobin S aggregation (see above). Two #25 hypodermic needles were inserted into each plastic diaphragm and nitrogen was passed over the surface of the erythrocyte suspension for 15 minutes with periodic gentle shaking. The hypodermic needles were removed and the sealed cuvettes were left for 2 hours at room temperature. The control cuvette was treated identically except that the cap was loosened for the 2 hour period.
Then 250 μl of 10% buffered formalin (Metpath) was added to the cell suspensions, which were allowed to stand at room temperature for 15 minutes. The cell suspensions were then sedimented by centrifugation, suspended in 100 μl of PBS and examined under the microscope.

HbS erythrocytes [2] = settings: literature (15, 16); cited from earlier work
human hemoglobin = human hemoglobin (Homo sapiens, UniProt P68871+P69905); settings: personal communication; cited from earlier work
hemoglobin S = target: T1, hemoglobin S (Homo sapiens, UniProt P68871+P69905, E7V); assay: Inhibition of aggregation of deoxygenated hemoglobin S (turbidity at 700 nm); type: biochemical; settings: low oxygen tension, 1.8M phosphate buffer, 30° C.
T1 construct: from tissue; host or cells: blood / erythrocytes of a subject with sickle cell disease (inferred from the general method)
Description: Inhibition of Aggregation of Hemoglobin S
To a 10 mm cuvette (Type 9GL14S, Septum seal, Uvonic Instruments, Plainview, N.Y. 11803) containing 0.9 ml of 1.8M phosphate buffer, pH 9.4, was added 5 mg of Na2S203. The cuvette was capped and two #25 hypodermic needles were inserted through the soft plastic seals. Nitrogen was passed over the surface of the solution for 15 minutes to drive off oxygen; the cuvette was then gently shaken to dissolve the Na2S203. The cuvette was then placed in an ice bath to bring the solution to 4° C. and 0.1 ml of a 2 g/dl HbS solution (13, 14) was added through the plastic diaphragm with a Hamilton air-tight syringe. The temperature of the solution in the cuvette was raised by placing it in a 30° C. bath and then into a spectrophotometer in which the increase in turbidity was measured with time at 700 nm. […] The latter was extracted with phosphate buffer from tablets of Valtrex (Glaxo Wellcome).

in vitro aggregation of HbS (hemoglobin S) | Structure (SMILES) | concentration relative to the effective concentration of acyclovir (HbS erythrocytes [1]; KCNO 2.4 mg/ml versus acyclovir (FIG. 2)) | concentration used to inhibit sickling (HbS erythrocytes [2]) [mg/mL] | sickling of deoxygenated erythrocytes (HbS erythrocytes [1]; 0.2 mg/ml) | sickling of deoxygenated erythrocytes (HbS erythrocytes [1]; 0.3 mg/ml) | sickling of deoxygenated erythrocytes (HbS erythrocytes [1]; 0.4 mg/ml) | proportion of sickling cells (HbS erythrocytes [1]; lowest concentration (FIG. 2B, 0.2 mg/ml)) | change in Hill coefficient (human hemoglobin) | change in oxygen affinity (human hemoglobin)
 | N#C[O-].[K+] [KCNO] | more than 10 × | 2.4 |  |  |  |  |  | 
inhibiting | Nc1nc2c(ncn2COCCO)c(=O)[nH]1 [acyclovir, 2-amino-1,9-dihydro-9-[(2-hydroxyethoxy)methyl]-6H-purin-6-one] |  |  | Minimal sickling | Minimal sickling | essentially no sickling | below 60% | no significant change | no significant change
inhibiting | CC(C)[C@H](N)C(=O)OCCOCn1cnc2c(=O)[nH]c(N)nc21 [valacyclovir, L-valine, 2-[(2-amino-1,6-dihydro-6-oxo-9H-purin-9-yl)methoxy]ethyl ester] |  |  |  |  |  |  |  | 
